Where two headings read alike, the source gives them in different places.
System: α7 integrin promoter
Experiment: muscle cell-based assay: α7βgal+/− myoblasts/myotubes, LacZ reporter, β-galactosidase cleavage of FDG
Parameters: species or system mouse; Results in α7+/− β-galactosidase assay: scale not given here
Conditions: for AC50: log of AC50, given with negative sign, unit of AC50 not given, read-out: Fit Log AC50 (converted); for Fit Curve Class: key not given; for EC50: given as log AC50 (negative values), read-out: Fit LogAC50 (converted)
How it was run: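 Primary α7βgal+/− mouse myoblasts (LacZ knocked into α7 integrin exon 1, promoter retained), differentiated; promoter activity read as β-galactosidase conversion of non-fluorescent FDG to fluorescein. Hits followed by dose-response, western analysis and myostatin counterscreen.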

[1] = Table 12, fitted activity at zero concentration
[2] = Table 12 Compound data, concentration-response curve fit
[3] = curve fit, activity at zero concentration

Structure (SMILES): COc1ccc(-c2c[nH]nc2-c2ccc(OC)cc2)cc1 [drawing 389]
- Results in a α7+/− β-galactosidase assay, Myotubes, 0.5 uM: −0.01143
- Results in a α7+/− β-galactosidase assay, Myotubes, 1 uM: 0.1883
- Results in a α7+/− β-galactosidase assay, Myotubes, 5 uM: 0.3888
- Results in a α7+/− β-galactosidase assay, Myotubes, 10 uM: 0.8585
- Results in a α7+/− β-galactosidase assay, Myotubes, 20 uM: 0.03803
- Results in a α7+/− β-galactosidase assay, Myotubes, 40 uM: −0.2518

Structure (SMILES): COc1cc(/C=C/CN2CCN(Cc3ccc(C)o3)C(CCO)C2)ccc1O (centres unmarked) [Compound 42]
- Activity at 1.530 μM [%] ** (1.530 μM): 0%
- AC50 (Mus musculus, Table 12): 14.1 µM
- Emax (Mus musculus, read-out: Max Response [%]): 481%
- Fit HillSlope (Table 12, curve fit): 4.9549
- Fit Zero Activity [%] [1]: 9.6207%
- Fit Curve Class (Table 12): 2.1
- Score [2]: 48

Structure (SMILES): O=C1Nc2ccccc2/C1=C\c1cccn1-c1ccc(OC(F)(F)F)cc1 [drawing 653]
- Results in α7+/− β-galactosidase assay (Myoblasts, 0.5 uM): −0.1201
- Results in α7+/− β-galactosidase assay (Myoblasts, 1 uM): 0.155
- Results in α7+/− β-galactosidase assay (Myoblasts, 5 uM): 0.2721
- Results in α7+/− β-galactosidase assay (Myoblasts, 10 uM): 0.07821
- Results in α7+/− β-galactosidase assay (Myoblasts, 20 uM): 0.05267
- Results in α7+/− β-galactosidase assay (Myoblasts, 40 uM): −0.1116

Structure (SMILES): COc1ccc(C(=O)/C=C2\C(=O)Nc3ccccc32)cc1 [drawing 569]
- Results in α7+/− β-galactosidase assay (Myoblasts, 0.5 uM): 0.002308
- Results in α7+/− β-galactosidase assay (Myoblasts, 1 uM): −0.1094
- Results in α7+/− β-galactosidase assay (Myoblasts, 5 uM): −0.5146
- Results in α7+/− β-galactosidase assay (Myoblasts, 10 uM): −0.6859
- Results in α7+/− β-galactosidase assay (Myoblasts, 20 uM): −0.703
- Results in α7+/− β-galactosidase assay (Myoblasts, 40 uM): −0.8556

Structure (SMILES): COCCN1C=C(C(=O)OC)C(c2ccccc2Cl)C(C(=O)OC)=C1 [Compound 123]
- EC50 (Mus musculus): 8.91 µM
- Score (Table 12 compound data): 43
- Fit Curve Class (curve class number): 2.1
- Fit HillSlope (curve fit): 1.3443
- Fit Zero Activity [%] [3]: 3.9836%

Structure (SMILES): Cc1cc(C)c(/C=C2\C(=O)Nc3ccccc32)[nH]1 [drawing 720]
- Result in α7+/− β-galactosidase assay (Myoblasts, 0.5 uM): −0.06315
- Result in α7+/− β-galactosidase assay (Myoblasts, 1 uM): −0.0048
- Result in α7+/− β-galactosidase assay (Myoblasts, 5 uM): −0.2673
- Result in α7+/− β-galactosidase assay (Myoblasts, 10 uM): −0.3421
- Result in α7+/− β-galactosidase assay (Myoblasts, 20 uM): −0.3332
- Result in α7+/− β-galactosidase assay (Myoblasts, 40 uM): −0.4797

Structure (SMILES): Cc1[nH]c(/C=C2\C(=O)Nc3ccccc32)c(C)c1CCC(=O)O [drawing 509]
- Results in α7+/− β-galactosidase assay (Myotubes, 0.5 uM): 0.04928
- Results in α7+/− β-galactosidase assay (Myotubes, 1 uM): 0.07615
- Results in α7+/− β-galactosidase assay (Myotubes, 5 uM): −0.501
- Results in α7+/− β-galactosidase assay (Myotubes, 10 uM): −0.6162
- Results in α7+/− β-galactosidase assay (Myotubes, 20 uM): −0.2542
- Results in α7+/− β-galactosidase assay (Myotubes, 40 uM): −0.3688

Structure (SMILES): COc1ccc(C(=O)Cn2nnc(-c3ccccc3NC(=O)c3ccco3)n2)cc1 [drawing 465]
- Results in a α7+/− β-galactosidase assay, Myotubes, 0.5 uM (Myotubes, compound at 0.5 uM): 0.1086
- Results in a α7+/− β-galactosidase assay, Myotubes, 1 uM (Myotubes, compound at 1 uM): 0.1215
- Results in a α7+/− β-galactosidase assay, Myotubes, 5 uM (Myotubes, compound at 5 uM): −0.1502
- Results in a α7+/− β-galactosidase assay, Myotubes, 10 uM (Myotubes, compound at 10 uM): −0.3147
- Results in a α7+/− β-galactosidase assay, Myotubes, 20 uM (Myotubes, compound at 20 uM): −0.5196
- Results in a α7+/− β-galactosidase assay, Myotubes, 40 uM (Myotubes, compound at 40 uM): −0.8196

Structure (SMILES): COc1ccc(C(=O)Nc2ccc(Cl)cn2)cc1Cl [drawing 706]
- Result in α7+/− β-galactosidase assay (Myoblasts, 0.5 uM): 0.1451
- Result in α7+/− β-galactosidase assay (Myoblasts, 1 uM): 0.1676
- Result in α7+/− β-galactosidase assay (Myoblasts, 5 uM): −0.1344
- Result in α7+/− β-galactosidase assay (Myoblasts, 10 uM): −0.2645
- Result in α7+/− β-galactosidase assay (Myoblasts, 20 uM): −0.7598
- Result in α7+/− β-galactosidase assay (Myoblasts, 40 uM): −0.8234

Structure (SMILES): O=C1Nc2ccccc2/C1=C\c1ccnc2ccccc12 [drawing 526]
- Results in α7+/− β-galactosidase assay (Myoblasts, 0.5 uM): 0.2132
- Results in α7+/− β-galactosidase assay (Myoblasts, 1 uM): 0.0742
- Results in α7+/− β-galactosidase assay (Myoblasts, 5 uM): 0.06287
- Results in α7+/− β-galactosidase assay (Myoblasts, 10 uM): 0.1705
- Results in α7+/− β-galactosidase assay (Myoblasts, 20 uM): −0.2337
- Results in α7+/− β-galactosidase assay (Myoblasts, 40 uM): −0.1575

Structure (SMILES): C/N=c1\scc(-c2ccc(OC)cc2)n1/N=C(\C)c1cccnc1 [Compound 118]
- AC50 (Mus musculus, Table 12): 5.01 µM
- Fit HillSlope (Table 12, curve fit): 1.6924
- Fit Zero Activity [%] [1]: −7.9176%
- Fit Curve Class (Table 12): 2.2
- Score [2]: 43

Structure (SMILES): COc1ccc(CNC(=O)C2CCCN(S(=O)(=O)c3c(C)noc3/C=C/N(C)C)C2)cc1 (centres unmarked) [drawing 579]
- Results in α7+/− β-galactosidase assay (Myoblasts, 0.5 uM): −0.00404
- Results in α7+/− β-galactosidase assay (Myoblasts, 1 uM): 0.03462
- Results in α7+/− β-galactosidase assay (Myoblasts, 5 uM): −0.04768
- Results in α7+/− β-galactosidase assay (Myoblasts, 10 uM): −0.2043
- Results in α7+/− β-galactosidase assay (Myoblasts, 20 uM): −0.2235
- Results in α7+/− β-galactosidase assay (Myoblasts, 40 uM): −0.5821

Structure (SMILES): O=S(=O)(NCC(c1ccco1)N1CCOCC1)c1ccc(Cl)cc1 (centres unmarked) [Compound 212]
- EC50 (Mus musculus): 14.1 µM
- Score (Table 12 compound data): 42
- Fit Curve Class (curve class number): 2.1
- Fit HillSlope (curve fit): 4.5045
- Fit Zero Activity [%] [3]: 9.0119%

Structure (SMILES): CC(=O)c1cccc(NC(=O)C(=O)Nc2cccc3ccccc23)c1 [Compound 197]
- EC50 (Mus musculus): 8.91 µM
- Score (Table 12 compound data): 42
- Fit Curve Class (curve class number): 2.2
- Fit HillSlope (curve fit): 0.9
- Fit Zero Activity [%] [3]: 1.5%

Structure (SMILES): NC1=Nc2cccc3cccc1c23 [Compound 117]
- AC50 (Mus musculus, Table 12): 7.94 µM
- Fit HillSlope (Table 12, curve fit): 1.6604
- Fit Zero Activity [%] [1]: −0.2202%
- Fit Curve Class (Table 12): 2.1
- Score [2]: 43

Structure (SMILES): Cc1ccc(NC(=O)COc2ccccc2CNC(C)(C)CC(C)(C)C)cc1 [Compound 131]
- EC50 (Mus musculus): 14.1 µM
- Score (Table 12 compound data): 43
- Fit Curve Class (curve class number): 2.1
- Fit HillSlope (curve fit): 4.9549
- Fit Zero Activity [%] [3]: 8.7591%

Structure (SMILES): COc1cc(NC(=O)OCc2ccccc2)c2ncccc2c1 [drawing 349]
- Results in a α7+/− β-galactosidase assay, Myotubes, 0.5 uM (Myotubes, compound at 0.5 uM): 0.01764
- Results in a α7+/− β-galactosidase assay, Myotubes, 1 uM (Myotubes, compound at 1 uM): 0.03267
- Results in a α7+/− β-galactosidase assay, Myotubes, 5 uM (Myotubes, compound at 5 uM): −0.1098
- Results in a α7+/− β-galactosidase assay, Myotubes, 10 uM (Myotubes, compound at 10 uM): −0.05054
- Results in a α7+/− β-galactosidase assay, Myotubes, 20 uM (Myotubes, compound at 20 uM): −0.1951
- Results in a α7+/− β-galactosidase assay, Myotubes, 40 uM (Myotubes, compound at 40 uM): −0.2383

Structure (SMILES): NC(=O)COc1ccc(C(=O)/C=C2\C(=O)Nc3ccccc32)cc1 [drawing 587]
- Results in α7+/− β-galactosidase assay (Myoblasts, 0.5 uM): 0.211
- Results in α7+/− β-galactosidase assay (Myoblasts, 1 uM): −0.06344
- Results in α7+/− β-galactosidase assay (Myoblasts, 5 uM): −0.1959
- Results in α7+/− β-galactosidase assay (Myoblasts, 10 uM): −0.647
- Results in α7+/− β-galactosidase assay (Myoblasts, 20 uM): −0.8153
- Results in α7+/− β-galactosidase assay (Myoblasts, 40 uM): −0.9741

Structure (SMILES): CC(C)(C)Nc1nc(-c2ccc3c(c2)CCN3C(=O)C2CC2)cs1 [drawing 345]
- Results in a α7+/− β-galactosidase assay, Myotubes, 0.5 uM (Myotubes, compound at 0.5 uM): 0.1684
- Results in a α7+/− β-galactosidase assay, Myotubes, 1 uM (Myotubes, compound at 1 uM): 0.1611
- Results in a α7+/− β-galactosidase assay, Myotubes, 5 uM (Myotubes, compound at 5 uM): 0.06864
- Results in a α7+/− β-galactosidase assay, Myotubes, 10 uM (Myotubes, compound at 10 uM): 0.06011
- Results in a α7+/− β-galactosidase assay, Myotubes, 20 uM (Myotubes, compound at 20 uM): −0.1349
- Results in a α7+/− β-galactosidase assay, Myotubes, 40 uM (Myotubes, compound at 40 uM): −0.5189

Structure (SMILES): CSc1ncccc1C(=O)OCC(=O)c1cc(C)n(C)c1C [Compound 134]
- EC50 (Mus musculus): 10 µM
- Score (Table 12 compound data): 42
- Fit Curve Class (curve class number): 2.1
- Fit HillSlope (curve fit): 4.4495
- Fit Zero Activity [%] [3]: −22.5632%

Structure (SMILES): CCC(=O)c1ccc(OCC(O)CN2CCOC(C)C2)cc1.O=C(O)C(=O)O (centres unmarked) [drawing 403]
- Results in a α7+/− β-galactosidase assay, Myotubes, 0.5 uM (Myotubes, compound at 0.5 uM): 0.08149
- Results in a α7+/− β-galactosidase assay, Myotubes, 1 uM (Myotubes, compound at 1 uM): 0.03201
- Results in a α7+/− β-galactosidase assay, Myotubes, 5 uM (Myotubes, compound at 5 uM): −0.09666
- Results in a α7+/− β-galactosidase assay, Myotubes, 10 uM (Myotubes, compound at 10 uM): −0.1187
- Results in a α7+/− β-galactosidase assay, Myotubes, 20 uM (Myotubes, compound at 20 uM): 0.08332
- Results in a α7+/− β-galactosidase assay, Myotubes, 40 uM (Myotubes, compound at 40 uM): 0.1461

Structure (SMILES): CC(C)(C)c1ccc(C(=O)OCC(=O)Nc2sc3c(c2C#N)CCC3)cc1 [Compound 85]
- AC50 (Mus musculus, Table 12): 5.01 µM
- Fit HillSlope (Table 12, curve fit): 1.8617
- Fit Zero Activity [%] [1]: 3.2331%
- Fit Curve Class (Table 12): 2.1
- Score [2]: 44

Structure (SMILES): Nc1ncnc(NCc2ccccc2)c1[N+](=O)[O-] [drawing 694]
- Results in α7+/− β-galactosidase assay (Myoblasts, 0.5 uM): 0.01911
- Results in α7+/− β-galactosidase assay (Myoblasts, 1 uM): 0.00831
- Results in α7+/− β-galactosidase assay (Myoblasts, 5 uM): 0.2463
- Results in α7+/− β-galactosidase assay (Myoblasts, 10 uM): −0.04019
- Results in α7+/− β-galactosidase assay (Myoblasts, 20 uM): −0.00635
- Results in α7+/− β-galactosidase assay (Myoblasts, 40 uM): 0.02312
